Source: patent US10730863B2, “Bridged bicyclic compounds as farnesoid X receptor modulators” (BRISTOL-MYERS SQUIBB COMPANY, priority 2017, dated 2020)

Molecular target: FXR (Homo sapiens (Human), UniProt Q96RI1)
Assay: FXR EC50 (FXR agonist activity reported with each example)
Format: cell-based

FXR, sequence (Q96RI1 262-486): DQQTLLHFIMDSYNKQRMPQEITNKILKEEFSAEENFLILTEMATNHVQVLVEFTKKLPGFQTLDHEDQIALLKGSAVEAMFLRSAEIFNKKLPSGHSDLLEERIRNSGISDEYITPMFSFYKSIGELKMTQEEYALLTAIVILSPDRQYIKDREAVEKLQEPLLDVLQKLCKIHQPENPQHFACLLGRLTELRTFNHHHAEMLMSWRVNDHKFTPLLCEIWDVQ

Structure (SMILES)	EC50 [nM]
O=C(O)c1cn(CC23CCC(OCc4c(-c5c(Cl)cccc5Cl)noc4C4CC4)(CC2)CC3)nc1C(F)F [Example 268, 1-((4-((5-cyclopropyl-3-(2,6-dichlorophenyl)isoxazol-4-yl)methoxy)bicyclo[2.2.2]octan-1-yl)methyl)-3-(difluoromethyl)-1H-pyrazole-4-carboxylic acid]	460
O=C(O)c1cnn(CC23CCC(OCc4c(-c5c(Cl)cccc5Cl)noc4C4CC4)(CC2)CC3)c1C(F)F [Example 269, 1-((4-((5-cyclopropyl-3-(2,6-dichlorophenyl)isoxazol-4-yl)methoxy)bicyclo[2.2.2]octan-1-yl)methyl)-5-(difluoromethyl)-1H-pyrazole-4-carboxylic acid]	700
O=C(O)C1CC1c1noc(C23CCC(OCc4c(-c5c(Cl)cncc5Cl)noc4C4CC4)(CC2)CC3)n1 (centres unmarked) [Example 270, 2-(5-(4-((5-cyclopropyl-3-(3,5-dichloropyridin-4-yl)isoxazol-4-yl)methoxy)bicyclo[2.2.2]octan-1-yl)-1,2,4-oxadiazol-3-yl)cyclopropane-1-carboxylic acid]	1500
O=C(O)C1(c2noc(C34CCC(OCc5c(-c6c(Cl)cncc6Cl)noc5C5CC5)(CC3)CC4)n2)CC1 [Example 271, 1-(5-(4-((5-cyclopropyl-3-(3,5-dichloropyridin-4-yl)isoxazol-4-yl)methoxy)bicyclo[2.2.2]octan-1-yl)-1,2,4-oxadiazol-3-yl)cyclopropane-1-carboxylic acid]	1100
CC(C)Oc1cc(-c2noc(C34CCC(OCc5c(-c6c(Cl)cnn6C)noc5C5CC5)(CC3)CC4)n2)cc(C(=O)O)n1 [Example 274, 4-(5-(4-((3-(4-chloro-1-methyl-1H-pyrazol-5-yl)-5-cyclopropylisoxazol-4-yl)methoxy)bicyclo[2.2.2]octan-1-yl)-1,2,4-oxadiazol-3-yl)-6-isopropoxypicolinic acid]	890
COc1cc(-c2noc(C34CCC(OCc5c(-c6c(Cl)cnn6C)noc5C5CC5)(CC3)CC4)n2)cc(C(=O)O)n1 [Example 275, 4-(5-(4-((3-(4-chloro-1-methyl-1H-pyrazol-5-yl)-5-cyclopropylisoxazol-4-yl)methoxy)bicyclo[2.2.2]octan-1-yl)-1,2,4-oxadiazol-3-yl)-6-methoxypicolinic acid]	2500
O=C(O)c1cc(OCC23CCC(OCc4c(-c5c(Cl)cncc5Cl)noc4C4CC4)(CC2)CC3)ccc1F [Example 277]	47
O=C(O)c1cnc(OCC23CCC(OCc4c(-c5c(Cl)cncc5Cl)noc4C4CC4)(CC2)CC3)cc1C(F)(F)F [Example 283]	15

Further lines, results first:

EC50 [nM]	Structure (SMILES)
95	O=C(O)c1cc(-c2noc(C34CCC(OCc5c(-c6c(Cl)cncc6Cl)noc5C5CC5)(CC3)CC4)n2)cc(OCC(F)(F)F)n1 [Example 263, 4-(5-(4-((5-cyclopropyl-3-(3,5-dichloropyridin-4-yl)isoxazol-4-yl)methoxy)bicyclo[2.2.2]octan-1-yl)-1,2,4-oxadiazol-3-yl)-6-(2,2,2-trifluoroethoxy)picolinic acid]
180	O=C(O)c1cc(-c2noc(C34CCC(OCc5c(-c6c(Cl)cncc6Cl)noc5C5CC5)(CC3)CC4)n2)cc(C(F)(F)F)n1 [Example 264, 4-(5-(4-((5-cyclopropyl-3-(3,5-dichloropyridin-4-yl)isoxazol-4-yl)methoxy)bicyclo[2.2.2]octan-1-yl)-1,2,4-oxadiazol-3-yl)-6-(trifluoromethyl)picolinic acid]
1500	COc1cc(-c2noc(C34CCC(OCc5c(-c6c(Cl)cncc6Cl)noc5C5CC5)(CC3)CC4)n2)cnc1C(=O)O [Example 265, 5-(5-(4-((5-cyclopropyl-3-(3,5-dichloropyridin-4-yl)isoxazol-4-yl)methoxy)bicyclo[2.2.2]octan-1-yl)-1,2,4-oxadiazol-3-yl)-3-methoxypicolinic acid]
720	O=C(O)C1CC1c1noc(C23CCC(OCc4c(-c5c(Cl)cccc5Cl)noc4C4CC4)(CC2)CC3)n1 (centres unmarked) [Example 266, 2-(5-(4-((5-cyclopropyl-3-(2,6-dichlorophenyl)isoxazol-4-yl)methoxy)bicyclo[2.2.2]octan-1-yl)-1,2,4-oxadiazol-3-yl)cyclopropane-1-carboxylic acid]
4400	Clc1cccc(Cl)c1-c1noc(C2CC2)c1COC12CCC(c3nc(-c4nn[nH]n4)no3)(CC1)CC2 [Example 267, 5-(4-((5-cyclopropyl-3-(2,6-dichlorophenyl)isoxazol-4-yl)methoxy)bicyclo[2.2.2]octan-1-yl)-3-(2H-tetrazol-5-yl)-1,2,4-oxadiazole]
400	O=C(O)C1CC1c1noc(CC23CCC(OCc4c(-c5c(Cl)cncc5Cl)noc4C4CC4)(CC2)CC3)n1 (centres unmarked) [Example 272, 2-(5-((4-((5-cyclopropyl-3-(3,5-dichloropyridin-4-yl)isoxazol-4-yl)methoxy)bicyclo[2.2.2]octan-1-yl)methyl)-1,2,4-oxadiazol-3-yl)cyclopropane-1-carboxylic acid]
3300	COc1ccc(-c2noc(C34CCC(OCc5c(-c6c(Cl)cnn6C)noc5C5CC5)(CC3)CC4)n2)cc1C(=O)O [Example 273, 5-(5-(4-((3-(4-chloro-1-methyl-1H-pyrazol-5-yl)-5-cyclopropylisoxazol-4-yl)methoxy)bicyclo[2.2.2]octan-1-yl)-1,2,4-oxadiazol-3-yl)-2-methoxybenzoic acid]
170	O=C(O)c1ccc(OCC23CCC(OCc4c(-c5c(Cl)cncc5Cl)noc4C4CC4)(CC2)CC3)c(F)c1 [Example 276, 4-((4-((5-cyclopropyl-3-(3,5-dichloropyridin-4-yl)isoxazol-4-yl)methoxy)bicyclo[2.2.2]octan-1-yl)methoxy)-3-fluorobenzoic acid]
620	NC(=O)c1cnc(OCC23CCC(OCc4c(-c5c(Cl)cncc5Cl)noc4C4CC4)(CC2)CC3)c(C(F)(F)F)c1 [Example 278, 6-((4-((5-cyclopropyl-3-(3,5-dichloropyridin-4-yl)isoxazol-4-yl)methoxy)bicyclo[2.2.2]octan-1-yl)methoxy)-5-(trifluoromethyl)nicotinamide]
190	O=C(O)c1cnc(OCC23CCC(OCc4c(-c5c(Cl)cncc5Cl)noc4C4CC4)(CC2)CC3)c(C(F)(F)F)c1 [Example 279, 6-((4-((5-cyclopropyl-3-(3,5-dichloropyridin-4-yl)isoxazol-4-yl)methoxy)bicyclo[2.2.2]octan-1-yl)methoxy)-5-(trifluoromethyl)nicotinic acid]
23	O=C(O)c1cc(C(F)(F)F)cc(OCC23CCC(OCc4c(-c5c(Cl)cncc5Cl)noc4C4CC4)(CC2)CC3)n1 [Example 280, 6-((4-((5-cyclopropyl-3-(3,5-dichloropyridin-4-yl)isoxazol-4-yl)methoxy)bicyclo[2.2.2]octan-1-yl)methoxy)-4-(trifluoromethyl)picolinic acid]
60	COc1cc(C(=O)O)nc2ccc(OCC34CCC(OCc5c(-c6c(Cl)cncc6Cl)noc5C5CC5)(CC3)CC4)cc12 [Example 282, 6-((4-((5-cyclopropyl-3-(3,5-dichloropyridin-4-yl)isoxazol-4-yl)methoxy)bicyclo[2.2.2]octan-1-yl)methoxy)-4-methoxyquinoline-2-carboxylic acid]
